{
  "source": "ChEMBL document CHEMBL1129084",
  "about": "“Structure-activity relationships for macrocyclic peptidomimetic inhibitors of HIV-1 protease” (Bioorg Med Chem Lett, 1996)",
  "note": "Starred links: 1 amine or outer side, 2 acyl side, 3 side chain; linkers in the order of their positions; H or OH if unused. Non-standard residues stand in square brackets, D forms with d. Residues, ends and D or L forms follow the SMILES beside them. Phe(ψ(S)CH(OH)CH2N)Pro = O=C([C@@H]1CCCN1C[C@H](O)[C@H](Cc1ccccc1)N[*:1])[*:2]; Pheψ(R-CH(OH)CH2N)Pro = O=C([C@@H]1CCCN1C[C@@H](O)[C@H](Cc1ccccc1)N[*:1])[*:2]",
  "data": [
    {"molecular_target": "Human immunodeficiency virus type 1 protease (Human immunodeficiency virus 1, UniProt Q72874)", "units": {"Ki": "nM"}, "values": [
      {"smiles": "CC[C@@H](C)[C@@H]1NC(=O)[C@@H](NC[C@@H](O)[C@@H]2Cc3ccc(cc3)OCCCCC(=O)N[C@@H](C(C)C)C(=O)N2)Cc2ccc(cc2)OCCCNC1=O", "Ki": 3},
      {"smiles": "CC[C@H](C)[C@H](NC(=O)[C@@H]1CCCN1C[C@@H](O)[C@H]1Cc2ccc(cc2)OCC(=O)NCC(=O)N[C@@H](CC(N)=O)C(=O)N1)C(=O)N[C@H](C(N)=O)C(C)C", "Ki": 200},
      {"smiles": "CC[C@H](C)[C@H](NC(=O)[C@@H]1CCCN1C[C@H](O)[C@H]1Cc2ccc(cc2)OCC(=O)N[C@@H](Cc2ccc(O)cc2)C(=O)N[C@@H](CC(N)=O)C(=O)N1)C(=O)N[C@H](C(N)=O)C(C)C", "Ki": 11},
      {"smiles": "CC[C@H](C)[C@H](NC(=O)[C@@H]1CCCN1C[C@H](O)[C@H]1Cc2ccc(cc2)OCC(=O)NCC(=O)N[C@@H](CC(N)=O)C(=O)N1)C(=O)N[C@H](C(N)=O)C(C)C", "Ki": 11},
      {"smiles": "CC[C@H](C)[C@H](NC(=O)[C@@H]1CCCN1C[C@@H](O)[C@H]1Cc2ccc(cc2)OCC(=O)N[C@@H](Cc2ccc(O)cc2)C(=O)N[C@@H](CC(N)=O)C(=O)N1)C(=O)N[C@H](C(N)=O)C(C)C", "Ki": 165},
      {"smiles": "CC[C@H](C)[C@H](NC(=O)[C@@H]1CCCN1C[C@H](O)[C@@H]1CSSC[C@@H](NC(C)=O)C(=O)NCC(=O)N[C@@H](CC(N)=O)C(=O)N1)C(=O)N[C@H](C(N)=O)C(C)C", "Ki": 250},
      {"smiles": "CC[C@H](C)[C@H](NC(=O)[C@@H]1CCCN1C[C@@H](O)[C@@H]1CSSC[C@@H](NC(C)=O)C(=O)NCC(=O)N[C@@H](CC(N)=O)C(=O)N1)C(=O)N[C@H](C(N)=O)C(C)C", "Ki": 36000},
      {"smiles": "CC[C@H](C)[C@H](NC(=O)[C@@H]1CCCN1C[C@H](O)[C@H]1Cc2ccc(cc2)OCCCCC(=O)NC(CC(N)=O)C(=O)N1)C(=O)N[C@H](C(N)=O)C(C)C", "note": "(some centres not stated)", "Ki": 8},
      {"smiles": "CC[C@H](C)[C@H](NC(=O)[C@@H]1CCCN1C[C@@H](O)[C@H]1Cc2ccc(cc2)OCCCCC(=O)NC(CC(N)=O)C(=O)N1)C(=O)N[C@H](C(N)=O)C(C)C", "note": "(some centres not stated)", "Ki": 74},
      {"smiles": "CC[C@H](C)[C@H](NC(=O)[C@@H]1CCCN1C[C@@H](O)[C@H]1Cc2ccc(cc2)OCCCC(=O)NC(CC(N)=O)C(=O)N1)C(N)=O", "note": "(some centres not stated)", "Ki": 2800},
      {"smiles": "CC[C@H](C)[C@H](NC(=O)[C@@H]1CCCN1C[C@H](O)[C@H]1Cc2ccc(cc2)OCCCC(=O)NC(CC(N)=O)C(=O)N1)C(N)=O", "note": "(some centres not stated)", "Ki": 250},
      {"smiles": "CC(C)[C@@H]1NC(=O)CCCCCOc2ccc(cc2)C[C@H]([C@H](O)CN2CCCC[C@H]2C(=O)NC(C)(C)C)NC1=O", "Ki": 50},
      {"smiles": "CC(C)N(C(=O)[C@@H]1CCCN1C[C@@H](O)[C@H]1Cc2ccc(cc2)OCCCC(=O)NC(CC(N)=O)C(=O)N1)C(C)C", "note": "(some centres not stated)", "Ki": 31000},
      {"smiles": "CC(C)(C)NC(=O)[C@@H]1CCCN1C[C@H](O)[C@H]1Cc2ccc(cc2)OCCCC(=O)NC(CC(N)=O)C(=O)N1", "note": "(some centres not stated)", "Ki": 145},
      {"smiles": "CC(C)(C)NC(=O)[C@@H]1CCCN1C[C@@H](O)[C@H]1Cc2ccc(cc2)OCCCC(=O)NC(CC(N)=O)C(=O)N1", "note": "(some centres not stated)", "Ki": 57},
      {"smiles": "CC(C)CN(CC(=O)NC(C)(C)C)C[C@@H](O)[C@H]1Cc2ccc(cc2)OCCCC(=O)N[C@@H](CC(N)=O)C(=O)N1", "Ki": 250},
      {"smiles": "CC(C)(C)NC(=O)CN(Cc1ccccc1)C[C@@H](O)[C@H]1Cc2ccc(cc2)OCCCC(=O)N[C@@H](CC(N)=O)C(=O)N1", "Ki": 440},
      {"smiles": "CC(C)(C)NC(=O)CN(Cc1ccccc1)C[C@H](O)[C@H]1Cc2ccc(cc2)OCCCC(=O)N[C@@H](CC(N)=O)C(=O)N1", "Ki": 13600},
      {"smiles": "NC(=O)CC1NC(=O)CCCOc2ccc(cc2)C[C@H]([C@H](O)CN2CCC[C@H]2C(N)=O)NC1=O", "note": "(some centres not stated)", "Ki": 16000},
      {"smiles": "NC(=O)CC1NC(=O)CCCOc2ccc(cc2)C[C@H]([C@@H](O)CN2CCC[C@H]2C(N)=O)NC1=O", "note": "(some centres not stated)", "Ki": 36000},
      {"smiles": "CC(C)N(C(=O)[C@@H]1CCCN1C[C@H](O)[C@H]1Cc2ccc(cc2)OCCCC(=O)NC(CC(N)=O)C(=O)N1)C(C)C", "note": "(some centres not stated)", "Ki": 86000},
      {"smiles": "CC(C)CN(CC(=O)NC(C)(C)C)C[C@H](O)[C@H]1Cc2ccc(cc2)OCCCC(=O)N[C@@H](CC(N)=O)C(=O)N1", "Ki": 380},
      {"smiles": "CC(C)[C@@H]1NC(=O)CCCCOc2ccc(cc2)C[C@H]([C@H](O)CN2CCCC[C@H]2C(=O)NC(C)(C)C)NC1=O", "Ki": 17},
      {"smiles": "CC[C@H](C)[C@H](NC(=O)[C@@H]1CCCN1C[C@H](O)[C@H](Cc1ccccc1)NC(=O)[C@H](CC(N)=O)NC(=O)[C@H](CC(C)C)NC(C)=O)C(=O)N[C@H](C(N)=O)C(C)C", "note": "(Ac-LN[Phe(ψ(S)CH(OH)CH2N)Pro]IV-NH2)", "Ki": 3},
      {"smiles": "CC[C@H](C)[C@H](NC(=O)[C@@H]1CCCN1C[C@@H](O)[C@H](Cc1ccccc1)NC(=O)[C@H](CC(N)=O)NC(=O)[C@H](CC(C)C)NC(C)=O)C(=O)N[C@H](C(N)=O)C(C)C", "note": "(Ac-LN[Pheψ(R-CH(OH)CH2N)Pro]IV-NH2)", "Ki": 18},
      {"smiles": "CC[C@H](C)[C@H](NC(=O)[C@@H]1CCCN1CC(O)[C@H]1Cc2ccc(cc2)OCC(=O)N[C@H](CCC(N)=O)C(=O)N[C@@H](CC(N)=O)C(=O)N1)C(=O)N[C@H](C(N)=O)C(C)C", "note": "(mixture of isomers)", "Ki": 4},
      {"smiles": "CC(C)(C)NC(=O)[C@H](Cc1ccccc1)NCC(O)[C@@H]1Cc2ccc(cc2)OCCCC(=O)NC(CC(N)=O)C(=O)N1", "note": "(mixture of isomers)", "Ki": 10300}
    ]}
  ]
}
